# Read-outs that look alike come from different tables or passages of the source.
# Experiment: Solubility of sirolimus in aqueous media, solvents and benzyl benzoate/ethanol mixtures
# Type: physicochemical
smiles,measurement,setting,value
"CO[C@H]1C[C@@H]2CC[C@@H](C)[C@@](O)(O2)C(=O)C(=O)N2CCCC[C@H]2C(=O)O[C@H]([C@H](C)C[C@@H]2CC[C@@H](O)[C@H](OC)C2)CC(=O)[C@H](C)/C=C(\C)[C@@H](O)[C@@H](OC)C(=O)[C@H](C)C[C@H](C)/C=C/C=C/C=C/1C [Sirolimus, sirolimus]",solubility,"PBS with 0.1% SDS, aqueous with cosolvent or surfactant or cyclodextrin, PBS, 0.1% SDS, pH 7.4, ambient temperature, read-out: Solubility",0.23 mg/mL
same,solubility,"PBS, pH 7.4, ambient temperature",Not detected
same,solubility,"benzyl benzoate/ethanol mixture, organic solvent or mixture, BB/EtOH Ratio 7, room temperature, read-out: Solubility in Benzyl Benzoate/Ethanol",163 mg/mL
same,solubility,"benzyl benzoate/ethanol mixture, organic solvent or mixture, BB/EtOH Ratio 9, room temperature, read-out: Solubility in Benzyl Benzoate/Ethanol",125 mg/mL
same,solubility,"benzyl benzoate/ethanol mixture, organic solvent or mixture, BB/EtOH Ratio 16, room temperature, read-out: Solubility in Benzyl Benzoate/Ethanol",90.1 mg/mL
same,solubility,"benzyl benzoate/ethanol mixture, organic solvent or mixture, BB/EtOH Ratio 18, room temperature, read-out: Solubility in Benzyl Benzoate/Ethanol",85.6 mg/mL
same,solubility,"oil or lipid, Castor oil, ambient temperature, read-out: Solubility",3 mg/mL
same,solubility,"organic solvent or mixture, Benzyl alcohol (BA), ambient temperature, read-out: Solubility",≥ 387 mg/mL
same,solubility,"organic solvent or mixture, Benzyl benzoate (BB), ambient temperature, read-out: Solubility",37 mg/mL
same,solubility,"organic solvent or mixture, Dimethyl sulfoxide (DMSO), ambient temperature, read-out: Solubility",≥ 243 mg/mL
same,solubility,"organic solvent or mixture, Ethanol (EtOH), ambient temperature, read-out: Solubility",48.5 mg/mL
same,solubility,"organic solvent or mixture, N methyl-2 Pyrrolidone (NMP), ambient temperature, read-out: Solubility",≥ 284 mg/mL
same,solubility,"organic solvent or mixture, PEG 400, ambient temperature, read-out: Solubility",10.7 mg/mL
same,solubility,"organic solvent or mixture, Propylene glycol, ambient temperature, read-out: Solubility",11.8 mg/mL

# From patent US10682340B2, “Depot formulations” (DURECT CORPORATION, priority 2016, dated 2020)
